According to US20230287217A1, “Zwitterionic Cell-Permeant and Water-Soluble Rhodamine Dyes for Quantitative Imaging Applications” (OREGON HEALTH & SCIENCE UNIVERSITY, priority 2020, published 2023):

How the values were obtained:
[1] = Absorption and fluorescence stability against solvent polarity changes (dioxane 20-80% in DI water); assay type: physicochemical; settings: compared with base fluorophores TMR and SiTMR (SiR)
From the text: FIG. 2D graphs normalized absorption (left) and fluorescence spectra (right) of fluorophores with varied percentages of dioxane (20-80%) in DI water resulting the polarity of the screening solvent systems changing in a gradient manner.
A. general rhodamine fluorophore structures including the classic TMR, SiTMR, and the sulfonated versions. […] This structural change results because the carboxylate anion attacks the central carbon forming a spirolactone, which is both colorless and non-fluorescent. […] C. […] This change in both absorbance and fluorescence intensity was alleviated using our sulfonated versions.

[2] = UV-Vis absorption and fluorescence spectroscopy (spectral properties in aqueous media / PBS buffer); assay type: physicochemical; design: Brightness: unit not given here; settings: aqueous media
Protocol: UV-Vis and fluorescence spectra were collected on a SpectraMax M5 spectrometer with a Microplate reader (Molecular Devices, Sunnyvale, CA). All absorbance spectra were reference corrected. Extinction coefficient was calculated from Beer’s Law plots of absorbance versus concentration. Relative quantum yields are reported using TMR and SiTMR as reference.

SMILES: CN(C)c1ccc2c(c1)[Si](C)(C)C1=CC(=[N+](C)C)C=CC1=C2c1ccccc1C(=O)O [SiR]
- stability of absorbance and fluorescence intensity against solvent polarity changes [1]: diminished rapidly
- Brightness [2]: 7
- Stokes Shift (nm) [2]: 20 nm
- FWHMabs (nm) ([2]; absorption band width): 39 nm
- λabs (nm) ([2]; absorption maximum): 642 nm
- FWHem (nm) ([2]; emission band width): 41 nm
- λem (nm) ([2]; emission maximum): 662 nm
- ε (M^-1 cm-1) ([2]; extinction coefficient from Beer's Law plots): 19,200 M^-1 cm-1
- ϕ ([2]; relative quantum yield, TMR and SiTMR as reference): 0.35
